Laboratory results reported in patent US11345710B2, “Imidazo[1,2-b]pyrimido[4,5-d]pyridazin-5(6H)-ones and the use thereof” (IMPACT THERAPEUTICS (SHANGHAI), INC, priority 2017, dated 2022).
Read-outs that look alike come from different tables or passages of the source.

Legend:
[1] = test system: NCI-H1299 cells; assay: MTT based cell viability assay on NCI-H1299 cells; conditions: for IC50: Homo sapiens, read-out: IC50, growth inhibition on NCI-H1299 cells
Experimental: Determination of the Cell Growth Inhibiting Activity of 6-(2,6-dichlorophenyl)-2-((4-(4-methylpiperazin-1-yl)phenyl)amino)imidazo[1,2-b]pyrimido[4,5-d]pyridazin-5(6H)-one and Analogs on NCI-H1299 Cells Using a MTT Based Cell Viability Assay
The thawed NCI-H1299 cells were cultured and passaged to the third generation, and the growth state was good and the confluence was about 90%, which began to be used in the experiment. The NCI-H1299 cells were digested with trypsin, centrifuged at 800 rpm for 5 min, the supernatant was discarded, resuspended with fresh culture medium, and counted. 1000 Cells are seeded to each well of a 96-well plate. The cells are incubated at 37° C. in a 5% CO2 cell culture incubator overnight. The tested sample (including the tested compound and the reference compound AZD1775) was diluted continuously to 8 concentrations (the last concentration was negative control of DMSO) with a 1:3 and 1:10 dilution in DMSO respectively: 10 μM, 3.3 μM, 1 μM, 0.33 μM, 0.1 μM, 0.033 μM, 0.01 μM, 0 μM (the final concentration of DMSO was 1%). 5 μL of each concentration was added to 120 μL of culture medium (25 times diluted), and the mixture was shaken well. The overnight cells were taken and the culture medium was removed, 195 μL of fresh culture medium was added to each well, and 5 μL of diluted culture medium containing the corresponding concentration of the tested sample was added respectively, and the culture plate was then placed in the 5% CO2 cell culture incubator at 37° C. for 3 d. After removing the original solution and adding 100 μL of fresh serum-free DMEM culture medium containing MTT (0.5 mg/mL) per well, the culture was continued. The original solution was removed after 4 hrs and 100 μl DMSO was added to each well. The 96-well cell culture plates were shaken away from light for 10 min and readed in a multifunctional reader at 552/630/690 nm to give absorption values (OD values). The data were analyzed using a graphic software (Graph Pad Prism 5.0) and the inhibitory activity of the compound on cell proliferation was plotted in terms of cell survival and compound concentration. The IC50 values were fitted by the S-shaped dose-response curve equation as follows: Y=100/(1+10^(Log C−Log IC50)), where C was the concentration of testing compounds.

[2] = test system: LoVo cells; assay: MTT based cell viability assay on LoVo cells; conditions: for IC50: Homo sapiens, 72 h, read-out: IC50, growth inhibition on LoVo cells
Experimental: Determination of the Cell Growth Inhibiting Activity of 6-(2,6-dichlorophenyl)-2-((4-(4-methylpiperazin-1-yl)phenyl)amino)imidazo[1,2-b]pyrimido[4,5-d]pyridazin-5(6H)-one and Analogs Thereof on LoVo Cells Using a MTT Based Cell Viability Assay
The thawed LoVo cells were cultured and passaged to the third generation, and the growth state was good and the confluence was about 90%, which began to be used in the experiment. The LoVo cells were digested with trypsin, centrifuged at 800 rpm for 5 min, the supernatant was discarded, resuspended with fresh culture medium, and counted. 6000 Cells are seeded to each well of a 96-well cell culture plate. The cells were incubated at 37° C. in a 5% CO2 cell culture incubator overnight. The tested sample (including the tested compound and the reference compound AZD1775) was diluted continuously to 8 concentrations (the last concentration was negative control of DMSO) with a 1:3 and 1:10 dilution in DMSO respectively: 10 μM, 3.3 μM, 1 μM, 0.33 μM, 0.1 μM, 0.033 μM, 0.01 μM, 0 μM (the final concentration of DMSO was 1%). 5 μL of each concentration was added to 120 μL of culture medium (25 times diluted), and the mixture was shaken well. The overnight cells were taken and the culture medium was removed, 195 μL of fresh culture medium was added to each well, and 5 μL of diluted culture medium containing the corresponding concentration of the tested sample was added respectively, and the culture plate was then placed in the 5% CO2 cell culture incubator at 37° C. for 3 d. After removing the original solution and adding 100 μL of fresh serum-free DMEM culture medium containing MTT (0.5 mg/mL) per well, the culture was continued. The original solution was removed after 4 hrs and 100 μl DMSO was added to each well. The 96-well cell culture plates were shaken away from light for 10 min and readed in a multifunctional reader at 552/630/690 nm to give absorption values (OD values). The data were analyzed using a graphic software (Graph Pad Prism 5.0) and the inhibitory activity of the compound on cell proliferation was plotted in terms of cell survival and compound concentration. The IC50 values were fitted by the S-shaped dose-response curve equation as follows: Y=100/(1+10^(Log C−Log IC50)), where C was the concentration of testing compounds.

[3] = molecular target: Wee1 kinase (h) (Homo sapiens, UniProt P30291); assay: Wee1 kinase (h) detection method, [γ-33P]-ATP filter assay; assay type: biochemical; conditions: for Inh. (%) of Wee1 kinase: 10 μM ATP, 40 minutes at room temperature
Chain of Wee1 kinase (h) (P30291 whole entry): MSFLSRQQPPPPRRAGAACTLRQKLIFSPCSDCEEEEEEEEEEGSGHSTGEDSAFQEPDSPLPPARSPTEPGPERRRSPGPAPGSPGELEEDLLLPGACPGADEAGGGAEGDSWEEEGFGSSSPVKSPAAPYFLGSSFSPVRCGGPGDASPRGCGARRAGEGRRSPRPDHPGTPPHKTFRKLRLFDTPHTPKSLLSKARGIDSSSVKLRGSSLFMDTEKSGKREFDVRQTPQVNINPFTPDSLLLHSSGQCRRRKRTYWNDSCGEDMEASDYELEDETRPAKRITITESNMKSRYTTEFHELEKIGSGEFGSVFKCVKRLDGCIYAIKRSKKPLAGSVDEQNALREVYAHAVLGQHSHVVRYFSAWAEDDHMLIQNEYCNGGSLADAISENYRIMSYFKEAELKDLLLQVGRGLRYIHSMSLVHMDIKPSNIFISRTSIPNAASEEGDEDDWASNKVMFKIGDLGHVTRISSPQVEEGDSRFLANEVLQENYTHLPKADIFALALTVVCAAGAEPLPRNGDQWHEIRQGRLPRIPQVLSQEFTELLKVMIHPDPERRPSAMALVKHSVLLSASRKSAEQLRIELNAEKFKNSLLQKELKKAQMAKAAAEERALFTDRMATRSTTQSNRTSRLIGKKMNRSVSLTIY
Experimental: Wee1 kinase (h) was incubated with 20 mM Tris/HCl pH 8.5, 0.2 mM EDTA, 500 μM […], 10 mM MgAcetate and 10 μM [γ-^33P]-ATP. Then the stock solution of all compounds under test with 50× concentration in 100% DMSO was added to make the final concentration of 1/0.1/0.01 μM, and then mixed the mixture well. The reaction was initiated by the addition of the Mg/ATP mix. After incubation for 40 minutes at room temperature, the reaction was stopped by the addition of phosphoric acid to a concentration of 0.5%. 10 μL of the reaction liquor was then spotted onto a P30 filtermat and washed four times in 0.425% phosphoric acid and once in methanol prior to drying and scintillation counting. Each compound sample was duplicated in duplicate. The negative control was lack of all the components of Wee1 enzyme, and the positive was addition of 30% phosphoric acid to terminate the reaction. The Wee1 inhibitor AZD1775 was detected at 10/0.01 μM at the same experiment condition.

[4] = 72 h, NCI-H1299 cells, 3 d, MTT

Inh. (%) of Wee1 kinase ([3]; C 1 μm)	IC50 [1, 4]	IC50 ([2]; LoVo cells, 3 d, MTT)	SMILES	IC50 ([1]; NCI-H1299, 72 h)	IC50 ([2]; LoVo)	also measured
93%	652 nM	406 nM	Cc1cc(Nc2ncc3c(=O)n(-c4c(F)cccc4F)n4ccnc4c3n2)ccc1N1CCN(C)CC1 [Example 2, 6-(2,6-difluorophenyl)-2-((3-methyl-4-(4-methylpiperazin-1-yl)phenyl)amino)imidazo[1,2-b]pyrimido[4,5-d]pyridazin-5(6H)-one]			
92%	781 nM	831 nM	CN1CCN(c2ccc(Nc3ncc4c(=O)n(-c5c(F)cccc5Cl)n5ccnc5c4n3)cc2)CC1 [Example 7, 6-(2-chloro-6-fluorophenyl)-2-((4-(4-methylpiperazin-1-yl)phenyl)amino)imidazo[1,2-b]pyrimido[4,5-d]pyridazin-5(6H)-one]			
97%	284 nM	213 nM	Cc1cc(Nc2ncc3c(=O)n(-c4c(F)cccc4Cl)n4ccnc4c3n2)ccc1N1CCN(C)CC1 [Example 9, 6-(2-chloro-6-fluorophenyl)-2-((3-methyl-4-(4-methylpiperazin-1-yl)phenyl)amino)imidazo[1,2-b]pyrimido[4,5-d]pyridazin-5(6H)-one]			Inh. (%) of Wee1 kinase ([3]; C 0.01 μm): 14%
93%	555 nM	266 nM	Cc1cc(Nc2ncc3c(=O)n(-c4c(F)cccc4Cl)n4ccnc4c3n2)cc(C)c1N1CCN(C)CC1 [Example 11, 6-(2-chloro-6-fluorophenyl)-2-((3,5-dimethyl-4-(4-methylpiperazin-1-yl)phenyl)amino)imidazo[1,2-b]pyrimido[4,5-d]pyridazin-5(6H)-one]			
	328 nM	359 nM	Cc1cc(Nc2ncc3c(=O)n(-c4c(F)cccc4Cl)n4ccnc4c3n2)ccc1N1C[C@@H](C)N(C)[C@@H](C)C1 [Example 24, 6-(2-chloro-6-fluorophenyl)-2-((3-methyl-4-((3S,5R)-3,4,5-trimethylpiperazin-1-yl)phenyl)amino)imidazo[1,2-b]pyrimido[4,5-d]pyridazin-5(6H)-one]			
			C[C@@H]1CN(c2ccc(Nc3ncc4c(=O)n(-c5c(Cl)cccc5Cl)n5ccnc5c4n3)cc2)C[C@H](C)N1C [Example 30, 6-(2,6-dichlorophenyl)-2-((4-((3S,5R)-3,4,5-trimethylpiperazin-1-yl)phenyl)amino)imidazo[1,2-b]pyrimido[4,5-d]pyridazin-5(6H)-one]	508 nM	779 nM	
			C[C@@H]1CN(c2ccc(Nc3ncc4c(=O)n(-c5c(Cl)cccc5Cl)n5ccnc5c4n3)cc2F)C[C@H](C)N1C [Example 31, 6-(2,6-dichlorophenyl)-2-((3-fluoro-4-((3S,5R)-3,4,5-trimethylpiperazin-1-yl)phenyl)amino)imidazo[1,2-b]pyrimido[4,5-d]pyridazin-5(6H)-one]	672 nM	809 nM	
			C[C@@H]1CN(c2ccc(Nc3ncc4c(=O)n(-c5c(Cl)cccc5Cl)n5ccnc5c4n3)cc2Cl)C[C@H](C)N1C [Example 32, 6-(2,6-dichlorophenyl)-2-((3-chloro-4-((3S,5R)-3,4,5-trimethylpiperazin-1-yl)phenyl)amino)imidazo[1,2-b]pyrimido[4,5-d]pyridazin-5(6H)-one]	515 nM	679 nM	
			Cc1cc(Nc2ncc3c(=O)n(-c4c(Cl)cccc4Cl)n4ccnc4c3n2)ccc1N1C[C@@H](C)N(C)[C@@H](C)C1 [Example 33, 6-(2,6-dichlorophenyl)-2-((3-methyl-4-((3S,5R)-3,4,5-trimethylpiperazin-1-yl)phenyl)amino)imidazo[1,2-b]pyrimido[4,5-d]pyridazin-5(6H)-one]	237 nM	394 nM	
			Cc1cc(Nc2ncc3c(=O)n(-c4c(Cl)cccc4Cl)n4ccnc4c3n2)ccc1C1CCN(C)CC1 [Example 41, 6-(2,6-dichlorophenyl)-2-((3-methyl-4-(1-methylpiperidin-4-yl)phenyl)amino)imidazo[1,2-b]pyrimido[4,5-d]pyridazin-5(6H)-one]	184 nM	212 nM	
	161 nM	325 nM	CCc1cn2c(n1)c1nc(Nc3ccc(N4CCN(C)CC4)c(C)c3)ncc1c(=O)n2-c1c(Cl)cccc1Cl [Example 60, 6-(2,6-dichlorophenyl)-2-((3-methyl-4-(4-methylpiperazin-1-yl)phenyl)amino)-9-ethylimidazo[1,2-b]pyrimido[4,5-d]pyridazin-5(6H)-one]			

SMILES	Inh. (%) of Wee1 kinase ([3]; C 1 μm)	IC50 [1, 4]	IC50 ([2]; LoVo cells, 3 d, MTT)	IC50 ([1]; NCI-H1299, 72 h)	IC50 ([2]; LoVo)	also measured
CN1CCN(c2ccc(Nc3ncc4c(=O)n(-c5c(Cl)cccc5Cl)n5ccnc5c4n3)cc2)CC1 [Example 1, 6-(2,6-dichlorophenyl)-2-((4-(4-methylpiperazin-1-yl)phenyl)amino)imidazo[1,2-b]pyrimido[4,5-d]pyridazin-5(6H)-one]	94%			916 nM	524 nM	inhibitory effect on the growth of NCI-H1299 cell (summary in words) ([1]; MTT method): inhibitory effect; inhibitory effect on the growth of LoVo cells (summary in words) ([2]; MTT method): inhibitory effect; inhibitory effect on the activity of Wee1 kinase (summary in words) [3]: good inhibitory effect; Inh. (%) of Wee1 kinase ([3]; C 0.01 μm): 11%; Inh. (%) of Wee1 kinase ([3]; C 0.1 μm): 75%
Cc1cc(Nc2ncc3c(=O)n(-c4c(Cl)cccc4Cl)n4ccnc4c3n2)ccc1N1CCN(C)CC1 [Example 3, 6-(2,6-dichlorophenyl)-2-((3-methyl-4-(4-methylpiperazin-1-yl)phenyl)amino)imidazo[1,2-b]pyrimido[4,5-d]pyridazin-5(6H)-one]	96%			178 nM	236 nM	Inh. (%) of Wee1 kinase ([3]; C 0.01 μm): 26%; Inh. (%) of Wee1 kinase ([3]; C 0.1 μm): 76%
Cc1cc(Nc2ncc3c(=O)n(-c4c(Cl)cccc4Cl)n4ccnc4c3n2)cc(C)c1N1CCN(C)CC1 [Example 4, 6-(2,6-dichlorophenyl)-2-((3,5-dimethyl-4-(4-methylpiperazin-1-yl)phenyl)amino)imidazo[1,2-b]pyrimido[4,5-d]pyridazin-5(6H)-one]	96%			383 nM	339 nM	Inh. (%) of Wee1 kinase ([3]; C 0.01 μm): 16%; Inh. (%) of Wee1 kinase ([3]; C 0.1 μm): 73%
